Source: patent US8258125B2, “HDL-boosting combination therapy complexes” (priority 2008, dated 2012)
“Also recorded” adds a separate entry of the source. Like-named read-outs stand apart in the source and are kept apart here.

Key:
Golden Syrian hamster = assay: Evaluation of antilipidemic property in hamster animal model (2-week daily oral gavage); format: in vivo; details: for raising HDL-C (in words): monotherapy; for LDL-C reduced by: 8-160 mg range; for reducing LDL-C by: repeat experiment, 5-20 mg dose range
From the text: Evaluation of antilipidemic property in animal. Golden Syrian hamster, 8-wk old (85-100 g) (Bio®F1B, Bio Breeders, Inc., Watertown, Mass.) was the animal model chosen for this study because of its similarities with humans in lipoprotein metabolism and atherosclerosis Moreover, the hamster has plasma cholesteryl ester transfer protein (CETP) similar to humans. Dietary fat saturation affects apolipoprotein gene expression and high-density lipoprotein size distribution in golden Syrian hamsters. The animals housed four per cage were fed […] Supreme Fortified Hamster diet ([…] Products, Inc. Chilton, Wis.), with one part ratio of Heath High Energy suet (Heath Mfg., Cooperville, Mich.); water ad libitum. The animals were fed this diet for 1 week, and then given the drug treatment for a 2-week duration. Drugs were administered by daily oral gavage using 4:6 PEG/Cremaphore suspension vehicle for the water-insoluble drugs (e.g., atorvastatin, lovastatin, simvastatin, and the fibrates); the water-soluble drugs (dihydroxy-acid salts, pravastatin) were dissolved in water. Equivalent doses, based on a 70 kg person, were administered in the hamster. […] Thus, the calculated final dose for a 100-gm hamster is 0.143 mg as well ([…] X a factor of “10”), formulated in a 0.25 ml solution for oral gavage administration. […] Body weights were recorded prior to drug administration and every other day during the test duration. At termination, blood was collected from anesthetized hamsters and the serum is separated by centrifugation. Total serum cholesterol was assayed using the Hitachi Diagnostics enzymatic kit for the determination of total cholesterol, LDL cholesterol, HDL cholesterol, and triglyceride (Analysis performed by: Lipid Analysis, Inc., Springfield, Ill.).

Water solubility = format: physicochemical
[1] = test system: Syrian Golden hamsters (F1B strain); assay: Lipid profile in Syrian Golden hamsters on hypercholesterolemic diet, combo drugs vs Crestor; format: in vivo; details: for effective doses found in this study: in combination, mg/70 kg man
Experimental: Crestor is a new synthetic statin and considered “superstatin” because of its effectiveness at low doses. In clinical studies, Crestor is now found to be the new gold standard among the statins: a 5 mg Crestor dose is equivalent to 20 mg Lipitor, 40 mg Zocor, 80 mg Mevacor or Pravachol. Thus, the drug combination of Compound I and Compound II was compared with Crestor. The animal model was Syrian Golden hamsters (F1B strain, BioBreeders, Fitchburg Mass.). The animals approximately 8-10 weeks of age were fed a non-purified chow-based hypercholesterolemic diet (HCD) containing 10% coconut oil and 0.1% cholesterol by weight for 2 weeks prior to initiation of the experimental treatments, and remain on this diet for the remainder of the study. Compounds I and II were administered by oral gavage (0.2 mL), once a day for 14 days. At day 14, blood samples were obtained after an overnight fast.

[2] = test system: Rattus norvegicus, outbred Sprague Dawley; details: combination, rat 14 days, mg/70 kg man
Experimental: Age range at initiation of study was 8-14. […] Quarantine/acclimation was one week. Animals were randomized to groups based on weight. Number per cage was 2-3. Environmental conditions: Conventional microisolator caging. Room temperature was maintained between 19 and 23° C. Relative humidify was maintained at 55-80%. The light/dark cycle was maintained on a 12 hour cycle. Animals were exposed to the test substance daily for 14 days (2 weeks); and the doses were administered by gavage.
Gross necropsy was performed in the animals in the study. […] Collected tissues were placed in formalin overnight and then sectioned and cassetted the following day.
Blood samples were collected by cardiac puncture, 24 hours after the last treatment, as part of the necropsy protocol. Parameters examined include hematocrit (HCT), hemoglobin (Hgb), total erythrocyte count (RBC), total white cell count (WBC), differential count, and platelet estimate; calculated mean corpuscular volume (MCV), mean corpuscular hemoglobin (MCH), and mean corpuscular hemoglobin concentration (MCHC).
Also, at 16-18 hours after the last treatment, animals were placed in metabolic cages and urine was collected (just prior to necropsy). The urine samples were tested for presence of myoglobin.
Clinical Chemistry. Blood samples were collected by cardiac puncture, 24 hours after the last treatment, as part of the necropsy protocol. […]

[3] = background description; cited from earlier work
[4] = Equivalent Dose 8 mg (per 70 kg man), oral gavage 2 weeks, serum
[5] = Equivalent Dose 160 mg (per 70 kg man), oral gavage 2 weeks, serum
[6] = repeat comparison, Equivalent Dose 10.0 mg
[7] = repeat comparison, Equivalent Dose 20.0 mg
[8] = repeat comparison, Equivalent Dose 5.0 mg
[9] = compared with the Compound I and II combination

For `CCC(C)(C)C(=O)O[C@H]1C[C@@H](C)C=C2C=C[C@H](C)[C@H](CC[C@@H]3C[C@@H](O)CC(=O)O3)[C@H]21` [Zocor, Simvastatin], the “% Decrease On: HDL-C” value (Golden Syrian hamster; Equivalent Dose 8 mg) was 12.6%, the “% Decrease On: LDL-C” value (Golden Syrian hamster; Equivalent Dose 8 mg) was 5.4% and the “% Decrease On: Triglyceride” value (Golden Syrian hamster; Equivalent Dose 8 mg) was 23.4%. The “% Decrease On: Total Cholesterol” value (Golden Syrian hamster; [4]) was 9.5%, the “% Decrease On: HDL-C” value (Golden Syrian hamster; Equivalent Dose 160 mg) was 30.7% and the “% Decrease On: LDL-C” value (Golden Syrian hamster; Equivalent Dose 160 mg) was 54.4%. For the same compound, the “% Decrease On: Triglyceride” value (Golden Syrian hamster; Equivalent Dose 160 mg) was 43.0% and the “% Decrease On: Total Cholesterol” value (Golden Syrian hamster; [5]) was 40.7%.
For `CC[C@H](C)C(=O)O[C@H]1C[C@H](O)C=C2C=C[C@H](C)[C@H](CC[C@@H](O)C[C@@H](O)CC(=O)O)[C@H]21` [Pravachol, Pravastatin], the “% Decrease On: HDL-C” value (Golden Syrian hamster; Equivalent Dose 8 mg) was 20.4%, the “% Decrease On: LDL-C” value (Golden Syrian hamster; Equivalent Dose 8 mg) was 29.9% and the “% Decrease On: Triglyceride” value (Golden Syrian hamster; Equivalent Dose 8 mg) was 18.8%. The “% Decrease On: Total Cholesterol” value (Golden Syrian hamster; [4]) was 22.4%, the “% Decrease On: HDL-C” value (Golden Syrian hamster; Equivalent Dose 160 mg) was 17.3% and the “% Decrease On: LDL-C” value (Golden Syrian hamster; Equivalent Dose 160 mg) was 33.3%. For the same compound, the “% Decrease On: Triglyceride” value (Golden Syrian hamster; Equivalent Dose 160 mg) was 25.9%, the “% Decrease On: Total Cholesterol” value (Golden Syrian hamster; [5]) was 23.0% and the “raising HDL-C (in words)” value (Golden Syrian hamster) was “did not show any increase in HDL-C”.
With `O=C(O)c1cccnc1` [niacin, 3-pyridine carboxylic acid] the solubility in water (Water solubility) was “not soluble in water”.
With `CC(C)c1c(C(=O)Nc2ccccc2)c(-c2ccccc2)c(-c2ccc(F)cc2)n1CC[C@@H](O)C[C@@H](O)CC(=O)O` [Lipitor, Atorvastatin] the “LDL-C reduced by” value (Golden Syrian hamster) was 28.5-54.4%, the “% Decrease On: HDL-C” value (Golden Syrian hamster; Equivalent Dose 8 mg) was 33.3% and the “% Decrease On: LDL-C” value (Golden Syrian hamster; Equivalent Dose 8 mg) was 28.5%. The “% Decrease On: Triglyceride” value (Golden Syrian hamster; Equivalent Dose 8 mg) was 35.8%, the “% Decrease On: Total Cholesterol” value (Golden Syrian hamster; [4]) was 28.6% and the “% Decrease On: HDL-C” value (Golden Syrian hamster; Equivalent Dose 160 mg) was 30.7%. For the same compound, the “% Decrease On: LDL-C” value (Golden Syrian hamster; Equivalent Dose 160 mg) was 54.4%, the “% Decrease On: Triglyceride” value (Golden Syrian hamster; Equivalent Dose 160 mg) was 53.0% and the “% Decrease On: Total Cholesterol” value (Golden Syrian hamster; [5]) was 43.0%. The “raising HDL-C (in words)” value (Golden Syrian hamster) was “not effective in raising HDL-C; also recorded: did not show any increase in HDL-C”, the “% Decrease On: HDL-C” value (Golden Syrian hamster; [6]) was 20.7% and the “% Decrease On: LDL-C” value (Golden Syrian hamster; [6]) was 17.9%. The “% Decrease On: Total Cholesterol” value (Golden Syrian hamster; [6]) was 18.2%, the “% Decrease On: Triglyceride” value (Golden Syrian hamster; [6]) was 5.0% and the “% Decrease On: HDL-C” value (Golden Syrian hamster; [7]) was 15.9%. The “% Decrease On: LDL-C” value (Golden Syrian hamster; [7]) was 8.9%, the “% Decrease On: Total Cholesterol” value (Golden Syrian hamster; [7]) was 12.3% and the “% Decrease On: Triglyceride” value (Golden Syrian hamster; [7]) was 4.8%. For the same compound, the “reducing LDL-C by” value (Golden Syrian hamster) was 8.9-17.9%.
With `CC[C@H](C)C(=O)O[C@H]1C[C@@H](C)C=C2C=C[C@H](C)[C@H](CC[C@@H](O)C[C@@H](O)CC(=O)[O-])[C@H]21.[Na+]` [Compound I] the “LDL-C reduced by” value (Golden Syrian hamster) was 41.4-59.2%, the “% Decrease On: HDL-C” value (Golden Syrian hamster; Equivalent Dose 8 mg) was 25.2% and the “% Decrease On: LDL-C” value (Golden Syrian hamster; Equivalent Dose 8 mg) was 41.4%. For the same compound, the “% Decrease On: Triglyceride” value (Golden Syrian hamster; Equivalent Dose 8 mg) was 28.6%, the “% Decrease On: Total Cholesterol” value (Golden Syrian hamster; [4]) was 30.3% and the “% Decrease On: HDL-C” value (Golden Syrian hamster; Equivalent Dose 160 mg) was 32.2%. For the same compound, the “% Decrease On: LDL-C” value (Golden Syrian hamster; Equivalent Dose 160 mg) was 29.2%, the “% Decrease On: Triglyceride” value (Golden Syrian hamster; Equivalent Dose 160 mg) was 33.7% and the “% Decrease On: Total Cholesterol” value (Golden Syrian hamster; [5]) was 40.7%. The “effective at a dose as low as” value (Golden Syrian hamster; equivalent dose, antilipidemic activity) was 5 mg, the “raising HDL-C (in words)” value (Golden Syrian hamster) was “not effective in raising HDL-C” and the “% Decrease On: HDL-C” value (Golden Syrian hamster; [8]) was 5.6%. The “% Decrease On: LDL-C” value (Golden Syrian hamster; [8]) was 14.7%, the “% Decrease On: Total Cholesterol” value (Golden Syrian hamster; [8]) was 14.8% and the “% Decrease On: Triglyceride” value (Golden Syrian hamster; [8]) was 4.5%. The “% Decrease On: HDL-C” value (Golden Syrian hamster; [6]) was 12.4%, the “% Decrease On: LDL-C” value (Golden Syrian hamster; [6]) was 23.7% and the “% Decrease On: Total Cholesterol” value (Golden Syrian hamster; [6]) was 12.6%. For the same compound, the “% Decrease On: Triglyceride” value (Golden Syrian hamster; [6]) was 6.8%, the “% Decrease On: HDL-C” value (Golden Syrian hamster; [7]) was 20.7% and the “% Decrease On: LDL-C” value (Golden Syrian hamster; [7]) was 22.4%. For the same compound, the “% Decrease On: Total Cholesterol” value (Golden Syrian hamster; [7]) was 20.9%, the “% Decrease On: Triglyceride” value (Golden Syrian hamster; [7]) was 23.6% and the “reducing LDL-C by” value (Golden Syrian hamster) was 22.4-23.7%. For the same compound, the “effective doses found in this study” value [1] was 1 to 3 mg.
With `CC(C)c1nc(N(C)S(C)(=O)=O)nc(-c2ccc(F)cc2)c1/C=C/[C@@H](O)C[C@@H](O)CC(=O)O` [Crestor] the “HDL level (in words)” value [1, 9] was “did not boost HDL” and the “controlling cholesterol and LDL (in words)” value [1, 9] was “less effective in controlling cholesterol and LDL”.
In the case of `CC(C)(Oc1ccc(CCNC(=O)c2ccc(Cl)cc2)cc1)C(=O)[O-].[Na+]` [Compound III], the “effective doses found in this study” value [1] was 30 to 40 mg and the “maximum tolerated dose (MTD)” value [2] was 10,000 mg.
For `CC[C@H](C)C(=O)O[C@H]1C[C@@H](C)C=C2C=C[C@H](C)[C@H](CC[C@@H]3C[C@@H](O)CC(=O)O3)[C@H]21` [Mevacor, Lovastatin], the “% Decrease On: HDL-C” value (Golden Syrian hamster; Equivalent Dose 8 mg) was 20.4%, the “% Decrease On: LDL-C” value (Golden Syrian hamster; Equivalent Dose 8 mg) was 22.4% and the “% Decrease On: Triglyceride” value (Golden Syrian hamster; Equivalent Dose 8 mg) was 21.8%. The “% Decrease On: Total Cholesterol” value (Golden Syrian hamster; [4]) was 19.4%, the “% Decrease On: HDL-C” value (Golden Syrian hamster; Equivalent Dose 160 mg) was 26.7% and the “% Decrease On: LDL-C” value (Golden Syrian hamster; Equivalent Dose 160 mg) was 54.4%. The “% Decrease On: Triglyceride” value (Golden Syrian hamster; Equivalent Dose 160 mg) was 34.4%, the “% Decrease On: Total Cholesterol” value (Golden Syrian hamster; [5]) was 36.6% and the “raising HDL-C (in words)” value (Golden Syrian hamster) was “did not show any increase in HDL-C”. For the same compound, the solubility in water (Water solubility) was “not water-soluble” and the solubility in water [3] was “insoluble in water”.
